Assay: Solubility / compatibility of the organic solvents in water at 60° C.
Type: physicochemical
Procedure: The above component (A) in the present invention is a polar organic solvent having low compatibility with water. The expression “low compatibility with water” means that only a small amount of the component dissolves in water, the solubility in water at 60° C., that is, the proportion of a portion soluble in water is preferably 50 vol % or less, more preferably 30 vol % or less. The expression “polar organic solvent” means an organic solvent having a relative dielectric constant of preferably 8 or more, more preferably 10 or more.
The organic solvents used in the examples and comparative examples are as follows.

Row | SMILES | solubility in water at 60° C. [vol %] | compatibility with water at 60° C.
1 | CCN1CCN(C)C1=O [DEI, 1-ethyl-3-methyl-2-imidazolidinone] | – | compatible with water at 60 °C in any ratio
2 | CN1CCN(C)C1=O [DMI, 1,3-dimethyl-2-imidazolidinone] | – | compatible with water at 60 °C in any ratio
3 | CCOCC(C)OCC(C)OCC (centres unmarked) [DPDE, dipropylene glycol diethyl ether] | 5 | –
4 | CCCN1CCN(CCC)C1=O [DPI, 1,3-dipropyl-2-imidazolidinone] | 12 | –
5 | COC(C)COC(C)CO (centres unmarked) [DPM, dipropylene glycol monomethyl ether, reference compound] | – | compatible with water at 60 °C in any ratio

More lines, main results first:

Row | solubility in water at 60° C. [vol %] | SMILES | compatibility with water at 60° C.
6 | 10 | CCCOC(C)COC(C)CO (centres unmarked) [DPP, dipropylene glycol monopropyl ether] | –
7 | 13 | CCCCCCCCN1CCCC1=O [NOP, N-octylpyrrolidone] | –
8 | 6 | CCCCOCC(C)O (centres unmarked) [PB, propylene glycol monobutyl ether] | –

— US6576600B1, “Detergent” (Tokuyama Corporation, priority 1999, dated 2003)
